Experimental data taken from patent US7723320B2, “Use of estrogen compounds to increase libido in women” (Pantarhei Bioscience B.V., priority 2001, dated 2010).
Several values for one entry are separate records, joined by “and”; a condition that tells them apart may be missing. Equal values may be shown once.

How the values were obtained:
[1] = test system: human breast cancer cells (MCF-7); details: MCF-7, long term tissue culture; cited from earlier work
[2] = test system: ovariectomized adult rats; experiment: Vaginal cornification bioassay in ovariectomized rats; format: in vivo, rat
Excerpt: Uterine weight increase in the rat is more commonly used as a measure of estrogenicity. […] In the early 1920s it was discovered that follicular fluid from the pig ovary contained a factor(s) that caused cornification/keratinization of the vaginal epithelium in the rat (Allen and Doisy, 1923, JAMA, 81,819-821; Allen and Doisy, 1924, Am. J. Physiol., 69, 577-588). The so-called vaginal cornification response in rats subsequently provided a bioassay for testing estrogenicity. Vaginal epithelial cornification/keratinization in ovariectomized rats can be produced only by compounds considered to be true estrogens (Jones et al, 1973, Fert. Steril. 24, 284-291). […] Adult intact female CD rats were ovariectomized to induce estrogen deficiency. […] Castrate vaginal smears are indicative that complete ovanectomy was achieved. Treatment commenced following completion of the 7 days of smearing (day 0=first day of dosing). Animals were dosed, once daily for 7 consecutive days. Daily vaginal lavages continued to be obtained for 7 days after dosing was initiated in order to detect vaginal cornification, as an indication of an estrogenic response. A drop of vaginal washings was placed on a glass slide and examined by light microscopy to detect the presence or absence of cornified epithelial cells. Vaginal lavages were obtained prior to dosing on days 0-6 and prior to necropsy on day 7. The vaginal cornification bioassay was performed in order to determine the estrogenic profile of E4 when given subcutaneously (sc) to ovariectomized adult rats. E2 was used as a positive control. […] The vaginal cornification bioassay was performed in order to determine the estrogenic profile of E4 when given orally (po) to ovariectomized adult rats. EE was used as a positive control. […] A vaginal estrogenic response occurred in all rats (8/8) given 50 μg/kg/day EE po by day 7 (Table 2).

[3] = test system: uterus; details: continuous administration from a subcutaneous depot; cited from earlier work

C[C@]12CC[C@@H]3c4ccc(O)cc4CC[C@H]3[C@@H]1[C@@H](O)[C@@H](O)[C@@H]2O [E4, 1,3,5(10)-estratrien-3,15α,16α,17β-tetrol]
agonistic potency relative to 17β-estradiol in in vitro cell proliferation [1]: 2% | Number of Rats Exhibiting Estrogenic Response/Number of Rats Treated ([2]; po, 0.1 mg/kg/day, Day 0): 0/8 | Number of Rats Exhibiting Estrogenic Response/Number of Rats Treated ([2]; po, 0.1 mg/kg/day, Day 1): 0/8 | Number of Rats Exhibiting Estrogenic Response/Number of Rats Treated ([2]; po, 0.1 mg/kg/day, Day 2): 1/8 | Number of Rats Exhibiting Estrogenic Response/Number of Rats Treated ([2]; po, 0.1 mg/kg/day, Day 3): 7/8 | Number of Rats Exhibiting Estrogenic Response/Number of Rats Treated ([2]; po, 0.1 mg/kg/day, Day 4): 8/8 | Number of Rats Exhibiting Estrogenic Response/Number of Rats Treated ([2]; po, 0.1 mg/kg/day, Day 5): 8/8 | Number of Rats Exhibiting Estrogenic Response/Number of Rats Treated ([2]; po, 0.1 mg/kg/day, Day 6): 8/8 | Number of Rats Exhibiting Estrogenic Response/Number of Rats Treated ([2]; po, 0.1 mg/kg/day, Day 7): 8/8 | Number of Rats Exhibiting Estrogenic Response/Number of Rats Treated ([2]; po, 0.3 mg/kg/day, Day 0): 0/8 | Number of Rats Exhibiting Estrogenic Response/Number of Rats Treated ([2]; po, 0.3 mg/kg/day, Day 1): 0/8 | Number of Rats Exhibiting Estrogenic Response/Number of Rats Treated ([2]; po, 0.3 mg/kg/day, Day 2): 1/8 | Number of Rats Exhibiting Estrogenic Response/Number of Rats Treated ([2]; po, 0.3 mg/kg/day, Day 3): 7/8 | Number of Rats Exhibiting Estrogenic Response/Number of Rats Treated ([2]; po, 0.3 mg/kg/day, Day 4): 8/8 | Number of Rats Exhibiting Estrogenic Response/Number of Rats Treated ([2]; po, 0.3 mg/kg/day, Day 5): 8/8 | Number of Rats Exhibiting Estrogenic Response/Number of Rats Treated ([2]; po, 0.3 mg/kg/day, Day 6): 8/8 | Number of Rats Exhibiting Estrogenic Response/Number of Rats Treated ([2]; po, 0.3 mg/kg/day, Day 7): 8/8 | Number of Rats Exhibiting Estrogenic Response/Number of Rats Treated ([2]; po, 1.0 mg/kg/day, Day 0): 0/8 | Number of Rats Exhibiting Estrogenic Response/Number of Rats Treated ([2]; po, 1.0 mg/kg/day, Day 1): 0/8 | Number of Rats Exhibiting Estrogenic Response/Number of Rats Treated ([2]; po, 1.0 mg/kg/day, Day 2): 4/8 | Number of Rats Exhibiting Estrogenic Response/Number of Rats Treated ([2]; po, 1.0 mg/kg/day, Day 3): 8/8 | Number of Rats Exhibiting Estrogenic Response/Number of Rats Treated ([2]; po, 1.0 mg/kg/day, Day 4): 8/8 | Number of Rats Exhibiting Estrogenic Response/Number of Rats Treated ([2]; po, 1.0 mg/kg/day, Day 5): 8/8 | Number of Rats Exhibiting Estrogenic Response/Number of Rats Treated ([2]; po, 1.0 mg/kg/day, Day 6): 8/8 | Number of Rats Exhibiting Estrogenic Response/Number of Rats Treated ([2]; po, 1.0 mg/kg/day, Day 7): 8/8 | Number of Rats Exhibiting Estrogenic Response/Number of Rats Treated ([2]; po, 3.0 mg/kg/day, Day 0): 0/8 | Number of Rats Exhibiting Estrogenic Response/Number of Rats Treated ([2]; po, 3.0 mg/kg/day, Day 1): 0/8 | Number of Rats Exhibiting Estrogenic Response/Number of Rats Treated ([2]; po, 3.0 mg/kg/day, Day 2): 6/8 | Number of Rats Exhibiting Estrogenic Response/Number of Rats Treated ([2]; po, 3.0 mg/kg/day, Day 3): 8/8 | Number of Rats Exhibiting Estrogenic Response/Number of Rats Treated ([2]; po, 3.0 mg/kg/day, Day 4): 8/8 | Number of Rats Exhibiting Estrogenic Response/Number of Rats Treated ([2]; po, 3.0 mg/kg/day, Day 5): 8/8 | Number of Rats Exhibiting Estrogenic Response/Number of Rats Treated ([2]; po, 3.0 mg/kg/day, Day 6): 8/8 | Number of Rats Exhibiting Estrogenic Response/Number of Rats Treated ([2]; po, 3.0 mg/kg/day, Day 7): 8/8 | onset of vaginal cornification (animals responding at days 1-3), po versus sc ([2]; relatively low doses, e.g. 0.1 mg/kg/day): faster in po-treated | onset of vaginal epithelial cornification ([2]; sc 0.1, 0.3, 1.0 and 3.0 mg/kg/day): dose-dependent | Number of Rats Exhibiting Estrogenic Response/Number of Rats Treated ([2]; sc, 0.1 mg/kg/day, Day 0): 0/8 | Number of Rats Exhibiting Estrogenic Response/Number of Rats Treated ([2]; sc, 0.1 mg/kg/day, Day 1): 0/8 | Number of Rats Exhibiting Estrogenic Response/Number of Rats Treated ([2]; sc, 0.1 mg/kg/day, Day 2): 0/8 | Number of Rats Exhibiting Estrogenic Response/Number of Rats Treated ([2]; sc, 0.1 mg/kg/day, Day 3): 1/8 | Number of Rats Exhibiting Estrogenic Response/Number of Rats Treated ([2]; sc, 0.1 mg/kg/day, Day 4): 1/8 | Number of Rats Exhibiting Estrogenic Response/Number of Rats Treated ([2]; sc, 0.1 mg/kg/day, Day 5): 4/8 | Number of Rats Exhibiting Estrogenic Response/Number of Rats Treated ([2]; sc, 0.1 mg/kg/day, Day 6): 3/8 | Number of Rats Exhibiting Estrogenic Response/Number of Rats Treated ([2]; sc, 0.1 mg/kg/day, Day 7): 4/8 | Number of Rats Exhibiting Estrogenic Response/Number of Rats Treated ([2]; sc, 0.3 mg/kg/day, Day 0): 0/8 | Number of Rats Exhibiting Estrogenic Response/Number of Rats Treated ([2]; sc, 0.3 mg/kg/day, Day 1): 0/8 | Number of Rats Exhibiting Estrogenic Response/Number of Rats Treated ([2]; sc, 0.3 mg/kg/day, Day 2): 1/8 | Number of Rats Exhibiting Estrogenic Response/Number of Rats Treated ([2]; sc, 0.3 mg/kg/day, Day 3): 5/8 | Number of Rats Exhibiting Estrogenic Response/Number of Rats Treated ([2]; sc, 0.3 mg/kg/day, Day 4): 7/8 | Number of Rats Exhibiting Estrogenic Response/Number of Rats Treated ([2]; sc, 0.3 mg/kg/day, Day 5): 6/8 | Number of Rats Exhibiting Estrogenic Response/Number of Rats Treated ([2]; sc, 0.3 mg/kg/day, Day 6): 7/8 | Number of Rats Exhibiting Estrogenic Response/Number of Rats Treated ([2]; sc, 0.3 mg/kg/day, Day 7): 7/8 | Number of Rats Exhibiting Estrogenic Response/Number of Rats Treated ([2]; sc, 1.0 mg/kg/day, Day 0): 0/8 | Number of Rats Exhibiting Estrogenic Response/Number of Rats Treated ([2]; sc, 1.0 mg/kg/day, Day 1): 0/8 | Number of Rats Exhibiting Estrogenic Response/Number of Rats Treated ([2]; sc, 1.0 mg/kg/day, Day 2): 1/8 | Number of Rats Exhibiting Estrogenic Response/Number of Rats Treated ([2]; sc, 1.0 mg/kg/day, Day 3): 6/8 | Number of Rats Exhibiting Estrogenic Response/Number of Rats Treated ([2]; sc, 1.0 mg/kg/day, Day 4): 8/8 | Number of Rats Exhibiting Estrogenic Response/Number of Rats Treated ([2]; sc, 1.0 mg/kg/day, Day 5): 7/8 | Number of Rats Exhibiting Estrogenic Response/Number of Rats Treated ([2]; sc, 1.0 mg/kg/day, Day 6): 8/8 | Number of Rats Exhibiting Estrogenic Response/Number of Rats Treated ([2]; sc, 1.0 mg/kg/day, Day 7, 1 mg/kg/day): all rats and 8/8 | Number of Rats Exhibiting Estrogenic Response/Number of Rats Treated ([2]; sc, 3.0 mg/kg/day, Day 0): 0/8 | Number of Rats Exhibiting Estrogenic Response/Number of Rats Treated ([2]; sc, 3.0 mg/kg/day, Day 1): 0/8 | Number of Rats Exhibiting Estrogenic Response/Number of Rats Treated ([2]; sc, 3.0 mg/kg/day, Day 2): 3/8 | Number of Rats Exhibiting Estrogenic Response/Number of Rats Treated ([2]; sc, 3.0 mg/kg/day, Day 3): 8/8 | Number of Rats Exhibiting Estrogenic Response/Number of Rats Treated ([2]; sc, 3.0 mg/kg/day, Day 4): 8/8 | Number of Rats Exhibiting Estrogenic Response/Number of Rats Treated ([2]; sc, 3.0 mg/kg/day, Day 5): 8/8 | Number of Rats Exhibiting Estrogenic Response/Number of Rats Treated ([2]; sc, 3.0 mg/kg/day, Day 6): 8/8 | Number of Rats Exhibiting Estrogenic Response/Number of Rats Treated ([2]; sc, 3.0 mg/kg/day, Day 7, 3 mg/kg/day): all rats and 8/8 | uterotrophic activity [3]: very weak uterotrophic activity
